Measured values published in patent US20030194738A1, “Antisense oligonucleotide compositions and methods for the modulation of activating protein 1” (priority 1997, published 2003).

Key:
Type in all cases: cell-based
c-jun mRNA = c-jun mRNA levels in PDGF-stimulated rat aortic smooth muscle cells; conditions: 200 nM for 4 hours; 2 and 6 hours after exposure to PDGF (10 ng/ml); versus untreated or ISIS 12898-treated cells
Description: (§1) In order to evaluate the effect of AP-1 modulation on cell cycle progression, the following study was performed. Cultured rat aortic smooth muscle (RASM) cells are stimulated to proliferate upon contact with platelet-derived growth factor (PDGF). Primary RASM cells (passages 6-8) were synchronized by incubation for 48 hours in DMEM containing 0.1% FBS. The cells were treated for 4 hours with 200 nM ISIS 12633 (SEQ ID NO:78), a 20-mer phosphorothioate oligonucleotide complementary to a portion of the 3′ UTR of rat c-jun mRNA, or ISIS 12898 (SEQ ID NO:92), a scrambled control of ISIS 12633. Cells were then contacted with PDGF (10 ng/ml) (R&D Systems, Minneapolis, Minn.), and cell cycle progression was assessed by FACS analysis 24 hours later. At 2 and 6 hours after exposure to PDGF, c-jun mRNA levels were markedly less in ISIS 12633-treated cells as compared to untreated cells or cells treated with ISIS 12898.

rat c-jun mRNA = assay: Rat c-jun mRNA expression in rat A10 cells
Description: Tables 13 and 14 show the sequences of oligonucleotides designed to modulate rat c-jun and c-fos mRNA expression, respectively. For the nucleotide sequence of the rat c-jun gene, see Genbank accession No. X17163/RSJUNAP1 and Saaki et al., Cancer Res., 1989, 49:5633. The nucleotide sequence of the rat c-fos gene is described in Genbank accession No. X06769/RNCFOSR and Curran et al., Oncogene, 1987, 2:79. Oligonucleotide activities were evaluated as described infra in Example 2 et seq. with the exception that rat A10 cells (available from, inter alia, the American Type Culture Collection, Rockville, Md., as ATCC No. CRL-1476) were used instead of human A549 cells. Due to the high degree of homology between human and rat c-jun and c-fos nucleotide sequences, probes derived from the human genes were used to detect the rat messages.
Another preferred oligonucleotide targeted to rat AP-1 subunits is ISIS 12635 (SEQ ID NO:80).

[1] = test system: rat aortic smooth muscle (RASM) cells; assay: Cell cycle progression of PDGF-stimulated rat aortic smooth muscle cells, FACS analysis; conditions: 200 nM; 24 hours after PDGF
Description: as §1

TTT-TCT-TCC-ACT-GCC-CCT-CA (TTTTCTTCCACTGCCCCTCA; DNA, all phosphorothioate, methylation of C not given here) [ISIS 12633]
c-jun mRNA levels (in words) (c-jun mRNA): markedly less
modulation of rat c-jun (in words) (rat c-jun mRNA): active modulator
proportion of cells in the G2/M interface (in words) [1]: significant decrease
